# Experimental data from ChEMBL document CHEMBL2034965, “The synthesis of 2,5-bis(4-amidinophenyl)thiophene derivatives providing submicromolar-range inhibition of the botulinum neurotoxin serotype A metalloprotease” (Eur J Med Chem, 2012).
# Experiments:
# [1] = biological target: Botulinum neurotoxin type A (Clostridium botulinum, UniProt P0DPI0); test: Competitive inhibition of clostridium botulinum Botulinum neurotoxin type A light chain by RP-HPLC analysis
# [2] = biological target: Botulinum neurotoxin type A (Clostridium botulinum) (UniProt P0DPI0); test: Ratio of Ki for NSC 300510 to compound Ki for clostridium botulinum Botulinum neurotoxin type A light chain by RP-HPLC analysis
# [3] = biological target: Botulinum neurotoxin type A (Clostridium botulinum) (UniProt P0DPI0); test: Inhibition of clostridium botulinum Botulinum neurotoxin type A light chain at 20 uM by RP-HPLC analysis
# Chain of Botulinum neurotoxin type A (Clostridium botulinum) (P0DPI0 2-448 limits assumed): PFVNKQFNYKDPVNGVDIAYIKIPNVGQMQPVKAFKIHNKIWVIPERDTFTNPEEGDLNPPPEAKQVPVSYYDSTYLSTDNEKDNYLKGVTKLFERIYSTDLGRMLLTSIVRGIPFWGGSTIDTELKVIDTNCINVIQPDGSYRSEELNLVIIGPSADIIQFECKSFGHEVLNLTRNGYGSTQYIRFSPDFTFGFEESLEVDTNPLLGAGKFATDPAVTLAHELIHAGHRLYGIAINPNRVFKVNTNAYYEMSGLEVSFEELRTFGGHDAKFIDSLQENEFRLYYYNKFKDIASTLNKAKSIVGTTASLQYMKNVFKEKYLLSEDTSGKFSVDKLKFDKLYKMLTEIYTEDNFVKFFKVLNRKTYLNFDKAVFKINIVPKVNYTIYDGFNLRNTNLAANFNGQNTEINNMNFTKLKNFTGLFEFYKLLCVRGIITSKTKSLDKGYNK
# Chain of Botulinum neurotoxin type A (P0DPI0 2-448 limits assumed): as above
SMILES,Ki [1],Ratio Ki [2],inhibition [3]
Clc1ccc2c(NCCCCNCc3ccc(-c4ccc(-c5ccc(CNCCCCNc6ccnc7cc(Cl)ccc67)cc5)s4)cc3)ccnc2c1,535 nM,,
Clc1ccc2c(NCCCCCNCc3ccc(-c4ccc(-c5ccc(CNCCCCCNc6ccnc7cc(Cl)ccc67)cc5)s4)cc3)ccnc2c1,889 nM,,
Clc1ccc2c(NCCNCc3ccc(-c4ccc(-c5ccc(CNCCNc6ccnc7cc(Cl)ccc67)cc5)s4)cc3)ccnc2c1,882 nM,,
O=C(NCCCNc1ccnc2cc(Cl)ccc12)c1cc(NC(=O)c2ccc(C(=O)Nc3cc(C(=O)NCCCNc4ccnc5cc(Cl)ccc45)cc(C4=NCCN4)c3)cc2)cc(C2=NCCN2)c1,,15,
Clc1ccc2c(NCCCNCc3ccc(-c4ccc(-c5ccc(CNCCCNc6ccnc7cc(Cl)ccc67)cc5)s4)cc3)ccnc2c1,,36,
N=C(N)c1ccc(-c2ccc(-c3ccc(C(=N)N)cc3)s2)cc1,10900 nM,,78%
